Measured values: ChEMBL document CHEMBL3217741, “Synthesis of 1,4-triazole linked zanamivir dimers as highly potent inhibitors of influenza A and B” (Medchemcomm, 2013)

System: Influenza B virus
Assay: microbe, parasite or virus in culture
Details: B/Harbin/07/94, MDCK, 72 h
Description: Antiviral activity against Influenza B virus (B/Harbin/07/94) infected in MDCK cells assessed as reduction of virus-induced cytopathic effect after 72 hrs by MTT assay

SMILES | EC50 [nM]
CC(=O)N[C@H]1[C@H]([C@H](OC(=O)NCCCCCCCn2cc(CCCCNC(=O)O[C@@H]([C@@H]3OC(C(=O)O)=C[C@H](NC(=N)N)[C@H]3NC(C)=O)[C@H](O)CO)nn2)[C@H](O)CO)OC(C(=O)O)=C[C@@H]1NC(=N)N | 0.32
CC(=O)N[C@H]1[C@H]([C@H](OC(=O)NCCCCCCCCc2cn(CCCCCCCNC(=O)O[C@@H]([C@@H]3OC(C(=O)O)=C[C@H](NC(=N)N)[C@H]3NC(C)=O)[C@H](O)CO)nn2)[C@H](O)CO)OC(C(=O)O)=C[C@@H]1NC(=N)N | 0.39
CC(=O)N[C@H]1[C@H]([C@H](OC(=O)NCCCn2cc(CCCc3cn(CCCNC(=O)O[C@@H]([C@@H]4OC(C(=O)O)=C[C@H](NC(=N)N)[C@H]4NC(C)=O)[C@H](O)CO)nn3)nn2)[C@H](O)CO)OC(C(=O)O)=C[C@@H]1NC(=N)N | 0.65
CC(=O)N[C@H]1[C@H]([C@H](OC(=O)NCCCCCn2cc(CCCCCc3cn(CCCCCNC(=O)O[C@@H]([C@@H]4OC(C(=O)O)=C[C@H](NC(=N)N)[C@H]4NC(C)=O)[C@H](O)CO)nn3)nn2)[C@H](O)CO)OC(C(=O)O)=C[C@@H]1NC(=N)N | 0.88
CC(=O)N[C@H]1[C@H]([C@H](OC(=O)NCCCn2cc(CCNC(=O)O[C@@H]([C@@H]3OC(C(=O)O)=C[C@H](NC(=N)N)[C@H]3NC(C)=O)[C@H](O)CO)nn2)[C@H](O)CO)OC(C(=O)O)=C[C@@H]1NC(=N)N | 0.51
CC(=O)N[C@H]1[C@H]([C@H](OC(=O)NCCCCc2cn(CCCNC(=O)O[C@@H]([C@@H]3OC(C(=O)O)=C[C@H](NC(=N)N)[C@H]3NC(C)=O)[C@H](O)CO)nn2)[C@H](O)CO)OC(C(=O)O)=C[C@@H]1NC(=N)N | 0.43
CC(=O)N[C@H]1[C@H]([C@H](OC(=O)NCCCCCn2cc(CCCCNC(=O)O[C@@H]([C@@H]3OC(C(=O)O)=C[C@H](NC(=N)N)[C@H]3NC(C)=O)[C@H](O)CO)nn2)[C@H](O)CO)OC(C(=O)O)=C[C@@H]1NC(=N)N | 0.79
CCOC(=O)C1=C[C@@H](OC(CC)CC)[C@H](NC(C)=O)[C@@H](N)C1 [OSELTAMIVIR] | 583
CC(=O)N[C@H]1[C@H]([C@H](O)[C@H](O)CO)OC(C(=O)O)=C[C@@H]1NC(=N)N [ZANAMIVIR] | 149
